{"source": "paper doi:10.1101/307710v1", "about": "“Assignment of the resting state of the secondary active transporter BetP by integrating spectroscopic measurements and molecular simulations” (biorxiv, 2018)", "biological_target": "T1, BetP (Corynebacterium glutamicum, UniProt P54582)", "T1 construct": "plasmid pASK-IBA5betP, Strep-Tactin purified from E. coli DH5alpha-T1, reconstituted in E. coli polar lipid liposomes; homotrimer", "T1 sequence (P54582 1-595)": "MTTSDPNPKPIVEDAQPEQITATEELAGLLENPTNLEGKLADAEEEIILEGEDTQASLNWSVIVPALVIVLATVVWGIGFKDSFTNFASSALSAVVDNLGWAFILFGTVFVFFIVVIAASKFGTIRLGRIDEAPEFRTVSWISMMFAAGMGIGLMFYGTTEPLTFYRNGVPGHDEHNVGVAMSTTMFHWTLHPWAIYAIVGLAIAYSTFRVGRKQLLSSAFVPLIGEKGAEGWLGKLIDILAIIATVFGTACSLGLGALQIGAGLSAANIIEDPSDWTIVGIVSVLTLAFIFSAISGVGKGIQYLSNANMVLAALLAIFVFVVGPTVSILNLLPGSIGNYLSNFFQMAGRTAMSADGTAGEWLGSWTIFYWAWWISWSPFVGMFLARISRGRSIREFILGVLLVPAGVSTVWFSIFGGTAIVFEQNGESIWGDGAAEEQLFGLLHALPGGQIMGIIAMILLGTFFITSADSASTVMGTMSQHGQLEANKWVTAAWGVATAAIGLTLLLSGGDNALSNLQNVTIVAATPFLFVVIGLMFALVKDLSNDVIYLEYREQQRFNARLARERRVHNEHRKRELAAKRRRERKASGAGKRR", "test": "[…]-betaine uptake into proteoliposomes", "format": "biochemical", "conditions": "labelled compound; 50 uM betaine, 25 mM NaCl, pH 7.5, 0.6 osmol/kg, valinomycin", "data": [{"smiles": "C[N+](C)(C)CC(=O)[O-]", "note": "[betaine]", "values": [{"measurement": "[14C]-betaine uptake into proteoliposomes", "value": "the activity of G450R5/S516R5 is only slightly decreased compared to the wildtype"}]}]}
